Assay results published in publication PMC11585590 (Nature Communications, 2024).
“Also recorded” adds a separate entry of the source. Peptide text beside a SMILES is read from it. * marks the point of attachment. Cbz = O=C(OCc1ccccc1)*

Assays:
HiBiT-tagged WDR5 [1] = target: T1, HiBiT-tagged WDR5 (Homo sapiens, UniProt P61964+Q9Y4B6); assay: Proteasome dependence: HiBiT-WDR5 level after 5 h with PROTAC 4 and/or MG132; format: cell-based; details: co-treatment with PROTAC 4 at 1.5 µM
HiBiT-tagged WDR5 [2] = target: T1, HiBiT-tagged WDR5; assay: Exogenous HiBiT WDR5 degradation assay, 24 h; format: cell-based; details: for Dmax of exogenous HiBiT-WDR5 degradation: MV4-11 cells expressing HiBiT-tagged WDR5, 24 h; for Dmax: MV4-11, read-out: Dmax of exogenous HiBiT-WDR5 degradation, MV4-11 cells expressing HiBiT-tagged WDR5, 24 h
WDR5 [3] = target: WDR5 (Homo sapiens, UniProt P61964); assay: Western blot of WDR5 in MV4-11 cells, 1.5 μM PROTAC, 24 h; format: cell-based
WDR5 [4] = details: highest concentration of 7.5 µM, no hook effect; cited from earlier work
[5] = system: MV4-11 cells expressing HiBiT WDR5; assay: ATPlite viability of MV4-11 cells expressing HiBiT WDR5, 24 h; format: cell-based; details: 2 nM to 10 μM
[6] = target: DCAF1-PROTAC-WDR5 ternary complex (Homo sapiens, UniProt P61964+Q9Y4B6); assay: SPR ternary complex formation: PROTAC with 0.25 µM WDR5 on immobilized DCAF1; format: binding; details: WDR5 0.25 µM
DCAF1 = DCAF1 (Homo sapiens, UniProt Q9Y4B6); assay: SPR ternary complex format: PROTAC alone on immobilized DCAF1; format: binding; details: for Rmax: PROTAC alone, absence of WDR5; for koff: read-out: koff (1/s); for kon: read-out: kon (1/Ms)
endogenous WDR5 = endogenous WDR5 (Homo sapiens, UniProt P61964); assay: Endogenous WDR5 degradation assay using ProteinSimple's Jess, 24 h; format: cell-based; details: for Dmax: MV4-11, read-out: Dmax of endogenous WDR5 degradation, parental MV4-11 cells, 24 h; for DC50: read-out: EC50 of endogenous WDR5 degradation

Chain of DCAF1-PROTAC-WDR5 ternary complex (Q9Y4B6 1077-1390, one chain of several): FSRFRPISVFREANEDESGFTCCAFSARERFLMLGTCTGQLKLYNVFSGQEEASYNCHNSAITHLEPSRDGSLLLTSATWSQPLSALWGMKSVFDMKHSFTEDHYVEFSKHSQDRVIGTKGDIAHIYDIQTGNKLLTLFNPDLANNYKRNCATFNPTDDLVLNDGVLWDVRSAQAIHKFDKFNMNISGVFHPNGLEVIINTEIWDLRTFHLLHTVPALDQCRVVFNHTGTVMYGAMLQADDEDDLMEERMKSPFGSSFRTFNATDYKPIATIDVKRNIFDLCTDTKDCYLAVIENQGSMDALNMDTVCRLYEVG
Chain of DCAF1 (Q9Y4B6 1077-1390): as the sequence (Q9Y4B6 1077-1390, one chain of several) above
T1 sequence (Q9Y4B6 whole entry, one chain of several): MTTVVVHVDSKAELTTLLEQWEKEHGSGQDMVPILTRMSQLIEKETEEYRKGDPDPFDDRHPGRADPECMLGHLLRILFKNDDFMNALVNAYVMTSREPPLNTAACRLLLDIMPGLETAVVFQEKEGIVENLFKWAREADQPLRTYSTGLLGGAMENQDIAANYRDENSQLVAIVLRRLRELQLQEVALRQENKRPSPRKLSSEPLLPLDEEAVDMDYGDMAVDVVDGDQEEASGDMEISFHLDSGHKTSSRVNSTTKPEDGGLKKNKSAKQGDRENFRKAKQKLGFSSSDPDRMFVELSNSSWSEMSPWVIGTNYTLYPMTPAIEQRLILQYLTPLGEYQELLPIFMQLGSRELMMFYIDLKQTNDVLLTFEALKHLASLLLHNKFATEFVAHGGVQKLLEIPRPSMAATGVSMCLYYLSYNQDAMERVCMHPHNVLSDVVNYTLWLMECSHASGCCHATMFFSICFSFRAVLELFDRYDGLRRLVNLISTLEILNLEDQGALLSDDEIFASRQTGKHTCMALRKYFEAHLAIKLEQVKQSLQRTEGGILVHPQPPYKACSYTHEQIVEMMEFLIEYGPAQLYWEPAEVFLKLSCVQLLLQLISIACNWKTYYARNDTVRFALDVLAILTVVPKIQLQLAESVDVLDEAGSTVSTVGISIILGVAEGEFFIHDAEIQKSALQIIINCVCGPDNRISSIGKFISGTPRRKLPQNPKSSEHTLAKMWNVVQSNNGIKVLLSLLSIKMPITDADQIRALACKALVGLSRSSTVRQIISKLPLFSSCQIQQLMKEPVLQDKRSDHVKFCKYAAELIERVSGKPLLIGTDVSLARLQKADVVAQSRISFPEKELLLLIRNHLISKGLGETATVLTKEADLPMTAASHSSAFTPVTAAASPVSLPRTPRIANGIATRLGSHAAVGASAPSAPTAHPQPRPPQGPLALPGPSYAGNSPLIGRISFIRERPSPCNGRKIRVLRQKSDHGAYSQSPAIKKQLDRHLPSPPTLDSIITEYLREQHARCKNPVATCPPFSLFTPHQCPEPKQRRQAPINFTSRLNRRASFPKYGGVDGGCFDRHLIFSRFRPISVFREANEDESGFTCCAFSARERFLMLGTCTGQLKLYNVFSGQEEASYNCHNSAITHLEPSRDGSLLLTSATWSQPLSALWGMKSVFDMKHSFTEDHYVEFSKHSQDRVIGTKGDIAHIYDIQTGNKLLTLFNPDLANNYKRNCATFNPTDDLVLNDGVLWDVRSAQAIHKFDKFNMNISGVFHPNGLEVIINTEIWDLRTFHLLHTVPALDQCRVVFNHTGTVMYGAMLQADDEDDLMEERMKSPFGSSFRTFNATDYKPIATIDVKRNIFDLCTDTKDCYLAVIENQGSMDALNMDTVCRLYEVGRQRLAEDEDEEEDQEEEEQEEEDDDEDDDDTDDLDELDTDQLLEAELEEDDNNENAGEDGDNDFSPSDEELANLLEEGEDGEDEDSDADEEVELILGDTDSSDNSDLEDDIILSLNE

| Structure (SMILES) | HiBiT-WDR5 level reached on rescue by MG132 (HiBiT-tagged WDR5 [1]) | WDR5 protein level by Western blot (WDR5 [3]) | Dmax (HiBiT-tagged WDR5 [2]) [%] | Rmax [6] | Kd (DCAF1) [nM] | Rmax (DCAF1) | koff (DCAF1) [s⁻¹] | kon (DCAF1) [M⁻¹ s⁻¹] | Dmax (endogenous WDR5) [%] | DC50 (endogenous WDR5; parental MV4-11 cells, 24 h) [nM] | Dmax of endogenous WDR5 degradation (endogenous WDR5; parental MV4-11 cells, 24 h) [%] | degradation of exogenous WDR5 in cells (HiBiT-tagged WDR5 [2]; MV4-11 cells) | degradation of endogenous WDR5 in cells (endogenous WDR5; MV4-11 cells) | Dmax of exogenous HiBiT-WDR5 degradation (HiBiT-tagged WDR5 [2]) [%] | Dmax of WDR5 degradation (WDR5 [4]) | toxicity / viability after 24 h (ATPlite) [5] |
| --- | --- | --- | --- | --- | --- | --- | --- | --- | --- | --- | --- | --- | --- | --- | --- | --- |
| CC(C)C[C@@H](C=O)NC(=O)[C@H](CC(C)C)NC(=O)[C@H](CC(C)C)NC(=O)OCc1ccccc1 [MG132] (Cbz-Leu-Leu-Leu-aldehyde) | approximately 100% | – | – | – | – | – | – | – | – | – | – | – | – | – | – | – |
| Cc1ncsc1-c1ccc([C@H](C)NC(=O)[C@@H]2C[C@@H](O)CN2C(=O)[C@@H](NC(=O)CNC(=O)c2ccc(F)c(-c3ccc(N4C[C@@H](C)N(C)[C@@H](C)C4)c(NC(=O)c4c[nH]c(=O)cc4C(F)(F)F)c3)c2)C(C)(C)C)cc1 [MS67, reference compound] | – | significantly decreased; also recorded: comparable levels of WDR5 degradation | – | – | – | – | – | – | – | – | – | – | – | 78.7 | ~ 70% | displayed some toxicity |
| C[C@@H]1CN(c2ccc(-c3cc(C(=O)NCCOCCOCCOCCOCCNC(=O)Cn4cc(-c5[nH]cc(C(=O)N[C@@H](CC(N)=O)c6ccc(F)c(Cl)c6)c5-c5ccc(Cl)cc5F)cn4)ccc3F)cc2NC(=O)c2c[nH]c(=O)cc2C(F)(F)F)C[C@H](C)N1C [PROTAC 2] | – | moderate WDR5 degradation | 41.2 ± 2.5 | 621 | 38 ± 0.6 | 106 | 0.008 | – | 21.9 ± 11.1 | 135 ± 6 | – | – | – | – | – | – |
| C[C@@H]1CN(c2ccc(-c3cc(C(=O)NCCOCCOCCOCCOCCOCCOCCOCCOCCOCCNC(=O)/C=C/c4[nH]cc(C(=O)N[C@@H](CC(N)=O)c5ccc(F)c(Cl)c5)c4-c4ccc(Cl)cc4F)ccc3F)cc2NC(=O)c2c[nH]c(=O)cc2C(F)(F)F)C[C@H](C)N1C [PROTAC 4] | – | significantly decreased; also recorded: comparable levels of WDR5 degradation | 73.8 ± 2.9 | 818 | 59 ± 0.9 | 102 | 0.014 | 239000 | 49.1 | 40 ± 24 | 49 ± 1.9 | – | – | – | – | did not show a significant toxicity |
| C[C@@H]1CN(c2ccc(-c3cc(C(=O)NCCCNC(=O)/C=C/c4[nH]cc(C(=O)N[C@@H](CC(N)=O)c5ccc(F)c(Cl)c5)c4-c4ccc(Cl)cc4F)ccc3F)cc2NC(=O)c2c[nH]c(=O)cc2C(F)(F)F)C[C@H](C)N1C [PROTAC 5] | – | – | – | – | – | – | – | – | – | – | – | did not degrade | did not degrade | – | – | – |

The next lines start with results.

| HiBiT-WDR5 level reached on rescue by MG132 (HiBiT-tagged WDR5 [1]) | WDR5 protein level by Western blot (WDR5 [3]) | Dmax (HiBiT-tagged WDR5 [2]) [%] | Rmax [6] | Kd (DCAF1) [nM] | Rmax (DCAF1) | koff (DCAF1) [s⁻¹] | kon (DCAF1) [M⁻¹ s⁻¹] | Dmax (endogenous WDR5) [%] | DC50 (endogenous WDR5; parental MV4-11 cells, 24 h) [nM] | Dmax of endogenous WDR5 degradation (endogenous WDR5; parental MV4-11 cells, 24 h) [%] | degradation of exogenous WDR5 in cells (HiBiT-tagged WDR5 [2]; MV4-11 cells) | degradation of endogenous WDR5 in cells (endogenous WDR5; MV4-11 cells) | Structure (SMILES) | Dmax of exogenous HiBiT-WDR5 degradation (HiBiT-tagged WDR5 [2]) [%] | Dmax of WDR5 degradation (WDR5 [4]) | toxicity / viability after 24 h (ATPlite) [5] |
| --- | --- | --- | --- | --- | --- | --- | --- | --- | --- | --- | --- | --- | --- | --- | --- | --- |
| – | moderate WDR5 degradation | 31.6 ± 5.5 | 390 | 46 ± 0.4 | 101 | 0.011 | 249000 | 23.5 ± 11.4 | 186 ± 89 | – | – | – | C[C@@H]1CN(c2ccc(-c3cc(C(=O)NCCOCCOCCOCCOCCNC(=O)/C=C/c4[nH]cc(C(=O)N[C@@H](CC(N)=O)c5ccc(F)c(Cl)c5)c4-c4ccc(Cl)cc4F)ccc3F)cc2NC(=O)c2c[nH]c(=O)cc2C(F)(F)F)C[C@H](C)N1C [PROTAC 1] | 32 | – | – |
| – | moderate WDR5 degradation | 41.9 ± 4.5 | 685 | 48 ± 2.8 | 42 | 0.003 | 69600 | 33.4 ± 6.8 | 93 ± 37 | – | – | – | C[C@@H]1CN(c2ccc(-c3cc(C(=O)NCCOCCOCCOCCOCCOCCOCCNC(=O)/C=C/c4[nH]cc(C(=O)N[C@@H](CC(N)=O)c5ccc(F)c(Cl)c5)c4-c4ccc(Cl)cc4F)ccc3F)cc2NC(=O)c2ccc(F)cc2C(F)(F)F)C[C@H](C)N1C [PROTAC 3] | – | – | – |
